Test results from patent US20090215884A1, “METHOD FOR WOUND HEALING” (priority 2005, published 2009).

Assays:
epidermal keratinocytes = experiment: Keratinocyte extracellular matrix attachment; assay type: cell-based, human
Method: Human, adult, epidermal keratinocytes, were purchased cryopreserved from Cascade Biologics Inc., Nottinghamshire, U.K. These cells (>500,000 viable cells/vial) were tested to be >70% viable, with the capacity to proliferate for at least 16 population doublings. The epidermal keratinocytes were cultured in serum-free, EpiLife® Medium (Cascade Biologics Inc.), supplemented with antibiotics (100 U/ml penicillin G sodium, […] streptomycin sulphate and 0.25 μg/ml amphotericin B) and EpiLife® Defined Growth Supplement (EDGS, consisting of purified bovine serum albumin, purified bovine transferring, hydrocortisone, recombinant human insulin-like growth factor type-1, prostaglandin E2 and recombinant human epidermal growth factor, Cascade Biologics Inc.). Epidermal keratinocytes cultures were maintained at 37° C., in a 5% CO2/95% air atmosphere, with the culture medium being changed every 2-3 days. Epidermal keratinocytes were used between 4-6 passages, for all experiments.
Prior to use, the PEP005/DMSO stock solution was removed from 4° C. storage and warmed to room temperature. […]

MMP-2 = experiment: Gelatin zymography of FPCL conditioned medium; assay type: cell-based, human; details: PEP005 0.01-0.1 μg/ml
Text: The ability of dermal fibroblasts to remodel/reorganize their ECM environment in the presence of PEP005 was examined by fibroblast populated collagen lattices (FPCLs), according to Cook et al (2000). Following trypsinization, dermal fibroblasts were suspended in Fibroblast-Serum Containing Medium, containing 10% gelatinase-free, fetal calf serum (prepared using a gelatin-A Sepharose column, GE Healthcare Ltd., Buckinghamshire, U.K.), to remove endogenous MMP-2 and MMP-9 activity. […] The degree of ECM reorganization/lattice contraction was quantified from three separate lattice diameter measurements performed on each of the three replicate samples, at days 1, 2, 3, 4, 5, 6, 7, 10 and 14, after initial fabrication. […]
To determine the relative amounts of pro- and active MMP species produced by the cells in the FPCL systems, gelatin zymography was employed, according to Cook et al (2000). Equal volumes (15 μl) of FPCL conditioned medium were subjected to sodium dodecyl sulphate-polyacrylamide gel electrophoresis (SDS-PAGE), on pre-cast 10% gelatin zymography gels (Ready Gel 10% Gelatin Zymogram Gels, Bio-Rad Laboratories Ltd., Hertfordshire, U.K.), incorporated into a Mini-Protean 3 Gel Electrophoresis System (Bio-Rad Laboratories Ltd.), at 15 mA for 4-5 h. […]

Q: Which results are given for C/C=C(/C)C(=O)O[C@H]1C(C)=C[C@]23C(=O)[C@@H](C=C(CO)[C@@H](O)[C@]12O)[C@H]1[C@@H](C[C@H]3C)C1(C)C [PEP005, ingenol-3-angelate]?
A: epidermal keratinocyte attachment to type I collagen (epidermal keratinocytes; 0, 01-10 μg/ml PEP005): significant dose-dependent stimulation; epidermal keratinocyte attachment to plasma fibronectin (epidermal keratinocytes; 1-μg/ml PEP005): trend towards a possible stimulation; Pro and active MMP-2 levels (MMP-2): observed to increase
